In US20230373985A1 (Origenis Gmbh, priority 2020, published 2023) one finds IC50 data, which are given here for 17 compounds.

The IC50 is the concentration needed to halve the response being measured.

Some results are limits rather than exact numbers.

Assay [1] addresses T1, wt human JAK1, catalytic site (Homo sapiens, UniProt P23458).
T1 construct: wt human JAK1, catalytic site; purchased ThermoFisher
Kind of assay: HTRF KinEASE assay, JAK1. The format is biochemical. The settings on record: 2.5 μM ATP; read-out: IC50, Activity Toward JAK1. The gist of the method: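 Two-step HTRF KinEASE assay: compound, kinase/biotinylated TK substrate and ATP were incubated at least 30 min at room temperature. Antibody plus streptavidin-XL665 was then added and plates were read after 60 min. Inhibition was derived from emission ratios according to the kit protocol.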
(TR-FRET usually uses a lanthanide donor and a delayed reading to cut background.)

The target of assay [2] is T2, wt human TYK2, catalytic site (Homo sapiens, UniProt P29597).
T2 construct: wt human TYK2, catalytic site; purchased SignalChem
T2 sequence (P29597 897-1176 limits assumed): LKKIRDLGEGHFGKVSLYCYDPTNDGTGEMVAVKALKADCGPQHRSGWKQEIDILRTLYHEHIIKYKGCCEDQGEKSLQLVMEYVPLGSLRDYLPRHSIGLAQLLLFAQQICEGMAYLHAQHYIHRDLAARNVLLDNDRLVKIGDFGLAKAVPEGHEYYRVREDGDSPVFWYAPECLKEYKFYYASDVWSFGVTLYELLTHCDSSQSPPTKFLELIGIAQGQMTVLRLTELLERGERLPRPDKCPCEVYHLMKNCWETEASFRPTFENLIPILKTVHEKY
Description: HTRF KinEASE assay, TYK2. The format is biochemical. The settings on record: 1 μM ATP; read-out: IC50, Activity Toward TYK2. In outline:
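HTRF KinEASE-TK readout with 1 μM biotinylated TK substrate in 1× kinase buffer, ≥30 min at room temperature, then antibody/streptavidin-XL665 detection for 60 min. TYK2 at 2 nM with 1 μM ATP; JAK2 at 1 nM with 100 μM ATP. Analysis uses emission ratios.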

Assay [3] addresses T3, wt human NUAK1, full length (Homo sapiens, UniProt O60285).
T3 construct: 8 nM wt human NUAK1, full length (ThermoFisher/USA); purchased ThermoFisher
T3 sequence (O60285 1-661): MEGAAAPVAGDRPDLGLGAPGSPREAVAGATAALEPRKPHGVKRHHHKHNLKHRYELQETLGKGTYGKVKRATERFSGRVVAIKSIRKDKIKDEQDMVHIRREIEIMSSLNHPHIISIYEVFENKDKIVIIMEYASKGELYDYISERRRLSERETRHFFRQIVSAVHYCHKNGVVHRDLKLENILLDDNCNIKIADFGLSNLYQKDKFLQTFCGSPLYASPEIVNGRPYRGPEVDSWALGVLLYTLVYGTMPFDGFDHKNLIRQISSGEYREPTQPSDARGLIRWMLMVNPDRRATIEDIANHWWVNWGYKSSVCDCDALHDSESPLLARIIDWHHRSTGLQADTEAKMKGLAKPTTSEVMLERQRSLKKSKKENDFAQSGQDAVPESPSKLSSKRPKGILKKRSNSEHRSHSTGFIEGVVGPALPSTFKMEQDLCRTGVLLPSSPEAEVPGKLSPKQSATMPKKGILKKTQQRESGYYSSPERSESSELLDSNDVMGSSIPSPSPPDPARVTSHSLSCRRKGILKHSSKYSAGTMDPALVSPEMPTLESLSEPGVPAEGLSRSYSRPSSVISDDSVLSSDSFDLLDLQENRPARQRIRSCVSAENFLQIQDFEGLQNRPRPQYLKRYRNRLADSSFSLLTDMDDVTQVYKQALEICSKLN
Description: TR-FRET LanthaScreen Eu Kinase Binding Assay, NUAK1. Particulars: read-out: IC50, Activity Toward NUAK1. The protocol:
The basic protocol for TR-FRET LanthaScreen Eu Kinase Binding Assay inhibitor studies were performed as follows. LanthaScreen Kinase Binding Assays (ThermoFisher/USA) to evaluate inhibitors were performed by addition of 5 μL of test compound in corresponding DMSO dilutions/5 μl of kinase/antibody mixture, 5 μL of tracer into 384 well small volume plates. After incubation for 1 hour at room temperature, plates were read. Data analysis of emission ratios was according LanthaScreen Eu Kinase Binding Assay protocol.
Kinase and assay components were adjusted to final concentrations according to kit protocol. For LRRK2: 5 nM wt human LRRK2, catalytic site, or G2019S human LRRK2, catalytic site (ThermoFisher/USA), 2 nM Eu-Anti-GST Antibody, 10 nM Kinase Tracer 236 in 1× Kinase Buffer A. For NUAK1: 8 nM wt human NUAK1, full length (ThermoFisher/USA), 2 nM Eu-Anti-His Antibody, 5 nM Kinase Tracer 236 in 1× Kinase Buffer A.

The target of assay [4] is T4, wt human LRRK2, catalytic site (Homo sapiens, UniProt Q5S007).
T4 construct: 5 nM wt human LRRK2, catalytic site; purchased ThermoFisher
Kind of assay: TR-FRET LanthaScreen Eu Kinase Binding Assay, LRRK2 wt. Particulars: one range stated for wt and G2019, read-out: IC50, Activity Toward LRRK2(Wt). In outline:
(§1)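 Tracer-displacement binding: compound mixed with kinase/Eu-antibody and Kinase Tracer 236 in 1× Kinase Buffer A, 1 h at room temperature, then TR-FRET emission ratio read. LRRK2 (wt or G2019S) 5 nM with 2 nM Eu-anti-GST, 10 nM tracer; NUAK1 8 nM with 2 nM Eu-anti-His, 5 nM tracer.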

Assay [5] has as its target T5, G2019S human LRRK2, catalytic site (Homo sapiens, UniProt Q5S007, G2019S).
T5 construct: G2019S human LRRK2, catalytic site; purchased ThermoFisher
Kind of assay: TR-FRET LanthaScreen Eu Kinase Binding Assay, LRRK2 G2019S. Particulars: LRRK2(G2019); one range stated for wt and G2019; read-out: IC50, Activity Toward LRRK2(G2019). The gist of the method:
as §1

T4 sequence (Q5S007 970-2527 limits assumed): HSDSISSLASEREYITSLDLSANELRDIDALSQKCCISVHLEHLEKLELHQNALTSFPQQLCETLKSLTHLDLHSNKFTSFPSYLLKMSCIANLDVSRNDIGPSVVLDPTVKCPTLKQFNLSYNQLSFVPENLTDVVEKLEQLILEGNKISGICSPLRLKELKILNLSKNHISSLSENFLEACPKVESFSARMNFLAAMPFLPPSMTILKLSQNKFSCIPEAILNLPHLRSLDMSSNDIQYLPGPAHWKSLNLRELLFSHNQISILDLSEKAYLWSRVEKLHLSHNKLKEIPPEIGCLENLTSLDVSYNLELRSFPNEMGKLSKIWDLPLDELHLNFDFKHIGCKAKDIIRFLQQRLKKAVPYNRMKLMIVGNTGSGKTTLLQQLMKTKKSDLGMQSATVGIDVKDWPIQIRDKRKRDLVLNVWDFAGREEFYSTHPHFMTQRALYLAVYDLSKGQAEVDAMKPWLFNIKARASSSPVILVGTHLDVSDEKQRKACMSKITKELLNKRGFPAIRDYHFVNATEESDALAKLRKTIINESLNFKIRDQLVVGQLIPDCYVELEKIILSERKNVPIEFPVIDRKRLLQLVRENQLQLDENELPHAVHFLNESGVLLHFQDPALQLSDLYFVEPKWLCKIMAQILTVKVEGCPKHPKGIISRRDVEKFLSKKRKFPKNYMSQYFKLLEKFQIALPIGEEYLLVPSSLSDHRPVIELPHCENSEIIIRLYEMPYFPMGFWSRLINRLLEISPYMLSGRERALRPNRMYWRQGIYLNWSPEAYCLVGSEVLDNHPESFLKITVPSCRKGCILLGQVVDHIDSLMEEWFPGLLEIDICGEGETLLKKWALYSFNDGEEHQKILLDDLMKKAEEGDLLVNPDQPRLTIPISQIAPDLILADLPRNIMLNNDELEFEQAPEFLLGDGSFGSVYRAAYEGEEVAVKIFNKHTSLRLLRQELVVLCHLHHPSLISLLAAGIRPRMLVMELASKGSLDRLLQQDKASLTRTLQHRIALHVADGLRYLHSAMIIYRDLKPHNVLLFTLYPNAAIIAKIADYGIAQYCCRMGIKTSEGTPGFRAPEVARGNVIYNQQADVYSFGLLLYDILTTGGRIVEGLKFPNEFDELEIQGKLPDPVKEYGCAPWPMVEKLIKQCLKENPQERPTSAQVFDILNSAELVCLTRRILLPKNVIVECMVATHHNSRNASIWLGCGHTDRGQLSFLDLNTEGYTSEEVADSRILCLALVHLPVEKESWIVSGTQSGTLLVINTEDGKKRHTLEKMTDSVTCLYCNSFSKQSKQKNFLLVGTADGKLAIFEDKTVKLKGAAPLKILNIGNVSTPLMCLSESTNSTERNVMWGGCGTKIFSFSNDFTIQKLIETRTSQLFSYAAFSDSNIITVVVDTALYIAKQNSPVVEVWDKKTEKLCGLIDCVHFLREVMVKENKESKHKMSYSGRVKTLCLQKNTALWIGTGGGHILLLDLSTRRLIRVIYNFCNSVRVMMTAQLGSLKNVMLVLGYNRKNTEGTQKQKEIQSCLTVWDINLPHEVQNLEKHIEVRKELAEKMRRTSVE
T1 sequence (P23458 875-1153 limits assumed): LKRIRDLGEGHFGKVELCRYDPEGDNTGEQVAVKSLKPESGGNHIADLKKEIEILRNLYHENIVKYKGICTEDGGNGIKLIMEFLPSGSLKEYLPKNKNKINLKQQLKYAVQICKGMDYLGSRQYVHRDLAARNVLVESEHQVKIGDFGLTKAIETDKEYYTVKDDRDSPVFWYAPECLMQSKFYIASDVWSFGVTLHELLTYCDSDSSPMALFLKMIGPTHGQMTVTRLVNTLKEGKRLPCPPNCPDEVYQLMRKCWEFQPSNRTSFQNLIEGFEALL
T5 sequence (Q5S007 970-2527 G2019S limits assumed): as the sequence (Q5S007 970-2527 limits assumed) above, with G1050S counted along it

As for `CN(C)[C@H]1CCN(C(=O)c2ccc(Nc3cn(-c4c(Cl)cccc4Cl)nc3C(N)=O)cc2)C1` [compound 314, (S)-1-(2,6-dichlorophenyl)-4-((4-(3-(dimethylamino)pyrrolidine-1-carbonyl)phenyl)amino)-1H-pyrazole-3-carboxamide], the figures for the IC50 in assay [1], in assay [2] and in assay [3] were 10 to 100 nM, < 10 nM and 100 to 1000 nM, respectively.
On the same counts, the results for `Cc1nc2cc(Nc3cn(-c4c(F)cccc4Cl)nc3C(N)=O)ccc2n1C` [compound 44, 1-(2-chloro-6-fluorophenyl)-4-((1,2-dimethyl-1H-benzo[d]imidazol-5-yl)amino)-1H-pyrazole-3-carboxamide] are 100 to 1000 nM, 10 to 100 nM and 100 to 1000 nM.
The matching figures for `NC(=O)c1nn(-c2c(Cl)cccc2Cl)cc1Nc1ccc(C(=O)N2CC[C@H](N)C2)cc1` [compound 319, (S)-4-((4-(3-aminopyrrolidine-1-carbonyl)phenyl)amino)-1-(2,6-dichlorophenyl)-1H-pyrazole-3-carboxamide]: 10 to 100 nM, 10 to 100 nM and 100 to 1000 nM.
For the compound `CN(C)CCn1ccnc1-c1ccc(Nc2cn(-c3c(Cl)cccc3Cl)nc2C(N)=O)cc1` [compound 251, 1-(2,6-dichlorophenyl)-4-((4-(1-(2-(dimethylamino)ethyl)-1H-imidazol-2-yl)phenyl)amino)-1H-pyrazole-3-carboxamide], the IC50 in assay [1] is 100 to 1000 nM; in assay [2] it was 10 to 100 nM; in assay [3] it was 100 to 1000 nM.
In the case of `NC(=O)c1nn(-c2c(Cl)cccc2Cl)cc1Nc1cn[nH]c1` [compound 407, 4-((1H-pyrazol-4-yl)amino)-1-(2,6-dichlorophenyl)-1H-pyrazole-3-carboxamide], the IC50 in assay [1], in assay [2] and in assay [3] was 100 to 1000 nM throughout.
For the compound `NC(=O)c1nn(-c2c(Cl)cccc2Cl)cc1Nc1ccc(C(=O)N2CC[C@H](N3CCCC3)C2)cc1` [compound 332, (S)-4-((4-([1,3′-bipyrrolidine]-1′-carbonyl)phenyl)amino)-1-(2,6-dichlorophenyl)-1H-pyrazole-3-carboxamide], the 50% inhibitory concentration (IC50) was 100 to 1000 nM in assay [1], < 10 nM in assay [2] and 100 to 1000 nM in assay [3].
With `CN(C)CCn1cnnc1-c1ccc(Nc2cn(-c3c(Cl)cccc3Cl)nc2C(N)=O)cc1` [compound 214, 1-(2,6-dichlorophenyl)-4-((4-(4-(2-(dimethylamino)ethyl)-4H-1,2,4-triazol-3-yl)phenyl)amino)-1H-pyrazole-3-carboxamide], the values for the half-inhibitory concentration (IC50) in assay [1], in assay [2] and in assay [3] were 10 to 100 nM, < 10 nM and 100 to 1000 nM, respectively.
The matching figures for `CN1CCCN(C(=O)c2ccc(Nc3cn(-c4c(Cl)cccc4Cl)nc3C(N)=O)cc2)CC1` [compound 91, 1-(2,6-dichlorophenyl)-4-((4-(4-methyl-1,4-diazepane-1-carbonyl)phenyl)amino)-1H-pyrazole-3-carboxamide]: 10 to 100 nM, < 10 nM and 100 to 1000 nM.
Turning to `NC(=O)c1nn(-c2c(Cl)cccc2Cl)cc1Nc1cnc(C(=O)N2CC[C@@H](F)C2)cn1` [compound 403, (R)-1-(2,6-dichlorophenyl)-4-((5-(3-fluoropyrrolidine-1-carbonyl)pyrazin-2-yl)amino)-1H-pyrazole-3-carboxamide], the IC50 in assay [2] and in assay [3] was 100 to 1000 nM each time.
For `CN1CCC(Oc2ccc(Nc3cn(-c4c(Cl)cccc4Cl)nc3C(N)=O)cc2)CC1` [compound 237, 1-(2,6-dichlorophenyl)-4-((4-((1-methylpiperidin-4-yl)oxy)phenyl)amino)-1H-pyrazole-3-carboxamide], the IC50 in assay [1] is 100 to 1000 nM; in assay [2], < 10 nM; in assay [3], 100 to 1000 nM.
Turning to `NC(=O)c1nn(-c2c(Cl)cccc2Cl)cc1Nc1ccc(-c2nc(C(F)(F)F)cn2CCO)cc1` [compound 338, 1-(2,6-dichlorophenyl)-4-((4-(1-(2-hydroxyethyl)-4-(trifluoromethyl)-1H-imidazol-2-yl)phenyl)amino)-1H-pyrazole-3-carboxamide], the figures for the half-inhibitory concentration (IC50) in assay [1], in assay [2] and in assay [3] were 100 to 1000 nM, < 10 nM and 100 to 1000 nM, respectively.
With `NC(=O)c1nn(-c2c(Cl)cccc2Cl)cc1Nc1ccc(OC2CCNCC2)cc1` [compound 424, 1-(2,6-dichlorophenyl)-4-((4-(piperidin-4-yloxy)phenyl)amino)-1H-pyrazole-3-carboxamide], the values for the IC50 in assay [1], in assay [2] and in assay [3] were 100 to 1000 nM, 10 to 100 nM and 100 to 1000 nM, respectively.
In the case of `CCc1cncnc1-c1ccc(Nc2cn(-c3c(Cl)cccc3Cl)nc2C(N)=O)cc1` [compound 52, 1-(2,6-dichlorophenyl)-4-((4-(5-ethylpyrimidin-4-yl)phenyl)amino)-1H-pyrazole-3-carboxamide], the IC50 in assay [1] is 100 to 1000 nM; in assay [2], 10 to 100 nM; in assay [4], 100 to 1000 nM; in assay [5] it was 100 to 1000 nM.
As to `Cc1c[n+]([O-])ccc1-c1ccc(Nc2cn(-c3c(Cl)cccc3Cl)nc2C(N)=O)cc1` [compound 267, 4-(4-((3-carbamoyl-1-(2,6-dichlorophenyl)-1H-pyrazol-4-yl)amino)phenyl)-3-methylpridine_1-oxide], the half-inhibitory concentration (IC50) in assay [1] lay in the range of 10 to 100 nM; in assay [2], 10 to 100 nM; in assay [4] it was 100 to 1000 nM; in assay [5] it was 100 to 1000 nM.
For `CCNC(=O)c1ccc(Nc2cn(-c3c(Cl)cccc3Cl)nc2C(N)=O)cc1` [compound 34, 1-(2,6-dichlorophenyl)-4-((4-(ethylcarbamoyl)phenyl)amino)-1H-pyrazole-3-carboxamide], the 50% inhibitory concentration (IC50) was 10 to 100 nM in assay [1], 10 to 100 nM in assay [2], 100 to 1000 nM in assay [4] and 100 to 1000 nM in assay [5].
On to `NC(=O)c1nn(-c2c(Cl)cccc2Cl)cc1Nc1ccc(C(=O)N2CCN(C3CC3)CC2)cc1` [compound 84, 4-((4-(4-cyclopropylpiperazine-1-carbonyl)phenyl)amino)-1-(2,6-dichlorophenyl)-1H-pyrazole-3-carboxamide], for which the IC50 is 10 to 100 nM in assay [1], < 10 nM in assay [2], 100 to 1000 nM in assay [4] and 100 to 1000 nM in assay [5].
Regarding `CCn1cnnc1-c1ccc(Nc2cn(-c3c(Cl)ccc(F)c3Cl)nc2C(N)=O)cc1` [compound 418, 1-(2,6-dichloro-3-fluorophenyl)-4-((4-(4-ethyl-4H-1,2,4-triazol-3-yl)phenyl)amino)-1H-pyrazole-3-carboxamide], the 50% inhibitory concentration (IC50) was in the range of 10 to 100 nM in assay [1], 10 to 100 nM in assay [2], 100 to 1000 nM in assay [4] and 100 to 1000 nM in assay [5].
